As usually defined, the Tmax is the time from dosing to the highest level. For orientation: AUC(0-inf) means the area under the concentration-time curve extrapolated to infinity. Low readings indicate less exposure, high ones more exposure. In general, Cmax refers to the maximum level reached in the sampled fluid or tissue. By inhibition is commonly meant the percentage by which the read-out fell short of the control. In general, half-life refers to how long it takes for the measured level to halve. Lower therefore signals rapid decline. As a reminder, the MRT is the average time that molecules of a dose stay in the body.

Chain of CYP2D6 (P10635 whole entry): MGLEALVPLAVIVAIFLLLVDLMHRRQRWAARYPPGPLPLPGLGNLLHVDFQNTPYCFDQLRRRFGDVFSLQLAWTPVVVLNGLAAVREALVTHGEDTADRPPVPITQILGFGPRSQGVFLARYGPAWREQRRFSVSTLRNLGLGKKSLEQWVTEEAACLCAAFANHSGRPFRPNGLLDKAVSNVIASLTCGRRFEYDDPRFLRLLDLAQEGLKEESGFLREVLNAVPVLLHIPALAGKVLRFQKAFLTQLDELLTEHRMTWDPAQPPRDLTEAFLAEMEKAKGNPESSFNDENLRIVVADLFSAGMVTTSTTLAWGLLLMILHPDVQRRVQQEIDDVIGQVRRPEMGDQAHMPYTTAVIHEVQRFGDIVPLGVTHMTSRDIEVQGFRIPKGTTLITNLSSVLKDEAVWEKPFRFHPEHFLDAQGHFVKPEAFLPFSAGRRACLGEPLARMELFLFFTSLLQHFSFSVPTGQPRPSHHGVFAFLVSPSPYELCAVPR
Chain of CYP3A4 (P08684 whole entry): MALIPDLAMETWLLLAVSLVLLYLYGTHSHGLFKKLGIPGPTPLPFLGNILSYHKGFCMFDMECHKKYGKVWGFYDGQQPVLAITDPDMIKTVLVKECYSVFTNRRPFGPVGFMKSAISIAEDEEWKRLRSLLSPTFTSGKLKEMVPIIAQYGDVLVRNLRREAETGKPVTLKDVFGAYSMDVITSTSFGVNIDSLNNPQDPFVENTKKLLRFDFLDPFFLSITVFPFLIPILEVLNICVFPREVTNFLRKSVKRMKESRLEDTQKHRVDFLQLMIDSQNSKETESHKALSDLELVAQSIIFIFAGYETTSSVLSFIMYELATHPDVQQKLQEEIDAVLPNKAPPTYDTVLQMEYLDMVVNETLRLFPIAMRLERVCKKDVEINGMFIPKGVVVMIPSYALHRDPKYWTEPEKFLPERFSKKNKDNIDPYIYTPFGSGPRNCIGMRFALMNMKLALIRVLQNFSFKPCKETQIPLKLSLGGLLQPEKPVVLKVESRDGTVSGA

Tested on in the first data set: not listed separately
As to the kind of experiment: Tmax in CD1 mouse at 5 mg/kg, ip. The format is ADME, organism-based. The following applies: in vivo.
With `COc1cc2ccccc2cc1C(=O)NC(=S)Nc1ccc(-c2ncc[nH]2)cc1`, the Tmax amounted to 1 h.
The same measure, in the same setting: as for `COc1cc2ccccc2cc1C(=O)NC(=S)Nc1ccc(-c2nnco2)cc1`, the figure is 2.33 h.

Tested on in another data set: not listed separately
Briefly: AUCinfinity in CD1 mouse at 5 mg/kg, ip. The format is ADME, organism-based. The settings on record: in vivo. The arrangement: dose 5 mg/kg, route ip.
On to `COc1cc2ccccc2cc1C(=O)NC(=S)Nc1ccc(-c2ncc[nH]2)cc1`, for which the AUC(0-inf) amounted to 15900 ng·h/mL.
`COc1cc2ccccc2cc1C(=O)NC(=S)Nc1ccc(-c2nnco2)cc1`: the AUC(0-inf) was determined as 34100 ng·h/mL. Against the preceding compound, the AUC(0-inf) is about 2.1-fold higher.

Tested on in a further data set: not listed separately
Briefly: Cmax in CD1 mouse at 5 mg/kg, ip. The format is ADME, organism-based. The settings on record: in vivo. The arrangement: dose 5 mg/kg, route ip.
`COc1cc2ccccc2cc1C(=O)NC(=S)Nc1ccc(-c2ncc[nH]2)cc1` gave a Cmax of 5060 ng/mL.
Regarding `COc1cc2ccccc2cc1C(=O)NC(=S)Nc1ccc(-c2nnco2)cc1`, the Cmax was 5100 ng/mL.

In a further data set the test system is SW-620. As to the kind of experiment: Cytotoxicity against human SW620 cells assessed as cell growth inhibition at 25 uM relative to control. The format is functional.
Details: not given
Take `O=C(Nc1ccc(N2CCN(C(=O)c3ccc4ccccc4c3)CC2)cc1)c1cc2ccccc2o1`: the inhibition at 25 µM is 27.8%.
On the same count and under the same terms, next, `O=C(NC(=S)Nc1ccc(-c2nc3ccccc3o2)cc1)c1ccc2cccnc2c1`: 0%; `COc1ccccc1C(=O)NC(=S)Nc1ccc(-c2nc3ccccc3[nH]2)cc1`: 16.9%; `COc1ccccc1C(=O)NC(=S)Nc1ccc(-c2nc3ccccc3o2)cc1`: 17.2%.
Same read-out and setting: as for `O=C1c2ccccc2CCN1C(=S)Nc1ccc(-c2ncco2)cc1`, the figure is 0.9%.
With `COc1cc2ccccc2cc1C(=O)NC(=S)Nc1ccc(-c2nc3ccccc3o2)cn1`, the inhibition at 25 µM was determined as 0%.
As for `CC(C)Oc1cc2ccccc2cc1C(=O)NC(=S)Nc1ccc(-c2nc3ccccc3o2)cc1`, the inhibition at 25 µM is 17.2%.
On to `COc1cc2ccccc2cc1C(=O)NC(=S)Nc1ccc(-c2nccs2)cc1`, for which the inhibition at 25 µM was 34.8%.
As to `COc1cc2ccccc2cc1C(=O)NC(=S)Nc1ccc(-c2ncc[nH]2)cc1`, the inhibition at 25 µM worked out at 89.9%.
The same measure, in the same setting: as for `COc1cc2ccccc2cc1C(=O)NC(=S)Nc1ccc(-c2nnco2)cc1`, the figure is 86.5%; as for `O=C1c2ccccc2CCN1C(=S)Nc1ccc(-c2nc3ccccc3o2)cc1`, 0%; as for `COc1cc2ccccc2cc1C(=O)NC(=O)Nc1ccc(-c2cscn2)cc1`, 42.6%.
Turning to `COc1cc2ccccc2cc1C(=O)NC(=S)Nc1ccc(-c2ncon2)cc1`, the inhibition at 25 µM came out at 18.4%.
Regarding `CCOc1cc2ccccc2cc1C(=O)NC(=S)Nc1ccc(-c2nc3ccccc3s2)cc1`, the inhibition at 25 µM came out at 13%.
On to `COc1ccccc1NC(=S)Nc1ccc(-c2nc3ccccc3[nH]2)cc1`, for which the inhibition at 25 µM amounted to 13.2%.
As for `O=C(NC(=S)Nc1ccc(-c2nc3ccccc3[nH]2)cc1)c1ccc2cccnc2c1`, the inhibition at 25 µM was found to be 0%.
Same read-out and setting: as for `COc1ccccc1NC(=S)Nc1ccc(-c2nc3ccccc3o2)cc1`, the figure is 29.2%; as for `COc1cc2ccccc2cc1C(=O)NC(=S)Nc1ccc(-c2nc3ccccc3s2)cn1`, 71.9%.
Still for that read-out and setting: next, `COc1cc2ccccc2cc1C(=O)NC(=O)Nc1ccc(-c2nc3ccccc3s2)cc1`: 0%; `COc1cc2c(OC)cccc2cc1C(=O)NC(=S)Nc1ccc(-c2nc3ccccc3[nH]2)cc1`: 37.6%.
Take `O=C(NC(=S)Nc1ccc(-c2nc3ccccc3o2)cc1)c1ccc2ccccc2c1`: the inhibition at 25 µM is 76.4%.
In the case of `CCOc1cc2ccccc2cc1C(=O)NC(=S)Nc1ccc(-c2nnco2)cc1`, the inhibition at 25 µM was found to be 0%.
On the same count and under the same terms, as for `COc1ccccc1NC(=O)Nc1ccc(-c2nc3ccccc3[nH]2)cc1`, the figure is 23.8%.
The same measure, in the same setting: as for `COc1ccccc1NC(=O)Nc1ccc(-c2nc3ccccc3o2)cc1`, the figure is 19.9%.
The same measure, in the same setting: next, `COc1cc2ccccc2cc1C(=O)NC(=S)Nc1ccc(-c2nc3ccccc3s2)cc1`: 7.1%; `O=C(NC(=S)Nc1ccc(-c2ncco2)cc1)c1ccc2cccnc2c1`: 1.4%.
On to `COc1cc2ccccc2cc1C(=O)NC(=S)Nc1ccc(-c2ncco2)cc1`, for which the inhibition at 25 µM amounted to 33.1%.
For the compound `CCOc1cc2ccccc2cc1C(=O)NC(=S)Nc1ccc(-c2nc3ccccc3o2)cc1`, the inhibition at 25 µM stood at 0%.
On the same count and under the same terms, next, `COc1cc2c(OC)cccc2cc1C(=O)NC(=S)Nc1ccc(-c2nc3ccccc3s2)cc1`: 15.8%.
For the compound `COc1cc2ccccc2cc1C(=O)NC(=O)Nc1ccc(-c2nc3ccccc3[nH]2)cc1`, the inhibition at 25 µM came out at 90.8%.
On the same count and under the same terms, next, `COc1cc2ccccc2cc1C(=O)NC(=S)Nc1ccc(-c2nc3ccccc3o2)cc1`: 57.6%.
Still for that read-out and setting: next, `COc1cc2ccccc2cc1C(=O)Nc1ccc(-c2nc3ccccc3s2)cc1`: 42.3%; `O=C(NC(=O)c1ccc2ccccc2c1)Nc1ccc(-c2nc3ccccc3[nH]2)cc1`: 12.7%.
On to `O=C(Nc1ccc(N2CCN(C(=O)c3ccccn3)CC2)cc1)c1cc2ccccc2o1`, for which the inhibition at 25 µM was 44.8%.
In the case of `COc1cc2ccccc2cc1C(=O)NC(=S)Nc1ccc(-c2nc3ccccc3[nH]2)cc1`, the inhibition at 25 µM is 68.4%.
On to `COc1cc2ccccc2cc1C(=O)NC(=O)Nc1ccc(-c2nc3ccccc3o2)cc1`, for which the inhibition at 25 µM was 0%.
Same read-out and setting: next, `COc1cc2ccccc2cc1C(=O)NC(=S)Nc1ccc(-c2cscn2)cc1`: 29%; `COc1cc2ccccc2cc1C(=O)Nc1ncc(C(F)(F)F)s1`: 17.6%.

Tested on in a further data set: not listed separately
Briefly: Protein binding in mouse plasma assessed as unbound fraction. The format is ADME, cell-free.
Details: not given
For the compound `COc1cc2ccccc2cc1C(=O)NC(=S)Nc1ccc(-c2nccs2)cc1`, the Fu was found to be 2.2%.
On the same count and under the same terms, next, `COc1cc2ccccc2cc1C(=O)NC(=O)Nc1ccc(-c2cscn2)cc1`: < 0.3%.
In the case of `COc1cc2ccccc2cc1C(=O)NC(=S)Nc1ccc(-c2ncon2)cc1`, the Fu is < 0.03%.
The same measure, in the same setting: next, `O=C(NC(=S)Nc1ccc(-c2nc3ccccc3o2)cc1)c1ccc2ccccc2c1`: < 0.03%; `COc1cc2ccccc2cc1C(=O)NC(=O)Nc1ccc(-c2nc3ccccc3[nH]2)cc1`: < 0.3%; `COc1cc2ccccc2cc1C(=O)NC(=S)Nc1ccc(-c2nc3ccccc3o2)cc1`: < 0.03%.
For the compound `COc1cc2ccccc2cc1C(=O)NC(=S)Nc1ccc(-c2nc3ccccc3[nH]2)cc1`, the Fu is reported as < 0.01%.

A further data set addresses CYP2D6 (Homo sapiens, UniProt P10635). Briefly: Inhibition of CYP2D6 (unknown origin) at 10 uM relative to control. The format is ADME.
Details: not given
Consider `COc1cc2ccccc2cc1C(=O)NC(=S)Nc1ccc(-c2ncc[nH]2)cc1`, for which testing at 10 µM gave an inhibition of 36%.
The compound `COc1cc2ccccc2cc1C(=O)NC(=S)Nc1ccc(-c2nnco2)cc1` came in with an inhibition at 10 µM of 19%.

Tested on in another data set: not listed separately
As to the kind of experiment: Protein binding in human plasma assessed as unbound fraction. It counts as ADME, cell-free.
Details: not given
With `O=C1c2ccccc2CCN1C(=S)Nc1ccc(-c2nc3ccccc3o2)cc1`, the Fu was < 0.03%.
As to `COc1cc2ccccc2cc1C(=O)NC(=O)Nc1ccc(-c2cscn2)cc1`, the Fu is listed as < 0.3%.
The same measure, in the same setting: next, `O=C(NC(=S)Nc1ccc(-c2nc3ccccc3o2)cc1)c1ccc2ccccc2c1`: < 0.04%; `COc1cc2ccccc2cc1C(=O)NC(=O)Nc1ccc(-c2nc3ccccc3[nH]2)cc1`: < 0.3%.
For the compound `COc1cc2ccccc2cc1C(=O)NC(=S)Nc1ccc(-c2nc3ccccc3[nH]2)cc1`, the Fu is listed as < 0.03%.

The target in another data set is CYP2C19 (Homo sapiens, UniProt P33261). Briefly: Inhibition of CYP2C19 (unknown origin) at 10 uM relative to control. The format is ADME.
Chain of CYP2C19 (P33261 whole entry): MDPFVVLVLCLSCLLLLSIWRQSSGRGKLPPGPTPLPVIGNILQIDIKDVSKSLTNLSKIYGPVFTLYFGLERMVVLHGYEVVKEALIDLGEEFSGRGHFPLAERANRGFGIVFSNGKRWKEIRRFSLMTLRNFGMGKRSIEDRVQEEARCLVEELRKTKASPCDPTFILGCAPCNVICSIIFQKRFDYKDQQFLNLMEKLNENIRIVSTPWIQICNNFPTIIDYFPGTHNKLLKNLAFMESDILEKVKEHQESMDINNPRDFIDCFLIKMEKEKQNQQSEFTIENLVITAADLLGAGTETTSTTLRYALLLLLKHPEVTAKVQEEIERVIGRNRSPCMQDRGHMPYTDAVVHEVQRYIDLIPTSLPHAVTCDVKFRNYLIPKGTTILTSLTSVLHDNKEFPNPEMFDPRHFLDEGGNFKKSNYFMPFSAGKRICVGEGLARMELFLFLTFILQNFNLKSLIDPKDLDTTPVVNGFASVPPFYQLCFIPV
Details: not given
`COc1cc2ccccc2cc1C(=O)NC(=S)Nc1ccc(-c2ncc[nH]2)cc1` showed an inhibition at 10 µM of 43%.
On the same count and under the same terms, as for `COc1cc2ccccc2cc1C(=O)NC(=S)Nc1ccc(-c2nnco2)cc1`, the figure is 37%.

Tested on in another data set: not listed separately
As to the kind of experiment: Half life in CD1 mouse at 5 mg/kg, ip. The format is ADME, organism-based. The settings on record: in vivo.
Compound `COc1cc2ccccc2cc1C(=O)NC(=S)Nc1ccc(-c2ncc[nH]2)cc1` gave a half-life of 2.49 h.
With `COc1cc2ccccc2cc1C(=O)NC(=S)Nc1ccc(-c2nnco2)cc1`, the half-life is 3.51 h. The half-life values of the last two compounds are within 1.5-fold of each other.

Another data set concerns the target CYP3A4 (Homo sapiens, UniProt P08684). Briefly: Inhibition of CYP3A4 (unknown origin) at 10 uM relative to control.
Details: not given
The format is ADME.
As to `COc1cc2ccccc2cc1C(=O)NC(=S)Nc1ccc(-c2ncc[nH]2)cc1`, testing at 10 µM gave an inhibition of 28%.
On the same count and under the same terms, as for `COc1cc2ccccc2cc1C(=O)NC(=S)Nc1ccc(-c2nnco2)cc1`, the figure is 16%.

Tested on in another data set: not listed separately
As to the kind of experiment: Mean residence time in CD1 mouse at 5 mg/kg, ip. The settings on record: in vivo. The format is ADME, organism-based.
As for `COc1cc2ccccc2cc1C(=O)NC(=S)Nc1ccc(-c2ncc[nH]2)cc1`, the MRT is 2.7 h.
Still for that read-out and setting: as for `COc1cc2ccccc2cc1C(=O)NC(=S)Nc1ccc(-c2nnco2)cc1`, the figure is 5.3 h.
